The values below come from patent US11365410B2, “Production and monitoring of metabolites in cells” (President and Fellows of Harvard College, priority 2015, dated 2022).

The target in data set [1] is T1, TtgR (Pseudomonas putida), regulator sequence SEQ ID NO: 14 (Pseudomonas putida, UniProt Q9AIU0).
T1 construct: expressed in transfected cells; host or cells: E. coli DH5alpha transformed with pJKR-H (high copy) or pJKR-L (low copy) plasmid
As to the kind of experiment: TtgR biosensor induction (sfGFP reporter, Hill fit). The format is cell-based. The conditions noted are these: naringenin. The source says: (§1) Plasmids were constructed using Gibson isothermal assembly methods (see Gibson, D. G., Young, L., Chuang, R. Y., Venter, J. C., Hutchison, C. A., 3rd and Smith, H. O. (2009) Enzymatic assembly of DNA molecules up to several hundred kilobases. Nat Methods, 6, 343-345 incorporated herein by reference in its entirety) and transformed into DH5α electrocompetent cells (New England Biolabs, Ipswich Mass.). […] Each inducible system was implemented on high and low copy plasmids. High copy pJKR-H plasmids were constructed with the pUC origin and beta lactamase antibiotic resistance marker derived from pUC19 (New England Biolabs, Ipswich Mass.). Low copy pJKR-L plasmids were constructed in the same way, except that the pUC origin was replaced by the SC101 origin (including repA) from pSC101 obtained from American Type Culture Collection (ATCC #37032). […] In both these plasmids the antibiotic resistance gene and origin of replication were replaced with p15a-aadA and colA-kanR. Each enzyme was cloned downstream of the constitutive promoter P2 (see Mutalik, V. K., Guimaraes, J. C., Cambray, G., Lam, C., Christoffersen, M. J., Mai, Q. A., Tran, A. B., Paull, M., Keasling, J. D., Arkin, A. P. et al. (2013) Precise and reliable gene expression via standard transcription and translation initiation elements. Nat Methods, 10, 354-360 hereby incorporated by reference in its entirety) and g10 RBS to create pJKR-MIOX variants. These expression plasmids used the colA origin of replication and kanamycin resistance gene for maintenance. Sequences and plasmids are available on Addgene (plasmid numbers 62557-62570).
(§2) DH5α cells transformed with pJKR plasmids and maintained with carbenicillin were used in the induction assays. For each induction evaluation experiment, the cells were grown overnight to saturation before being diluted 1:100 into fresh LB media and incubated at 200 RPM and 37° C. […] Measurements were made on the same Biotek (Winooksi, Vt.) HT plate reader using the same settings: excitation 485/20, emission 528/20, 37° C. and fast shaking. Fluorescence and absorbance were measured every 10 minutes for 15 hours. Fluorescence was measured in arbitrary units (AFU) while optical density was determined by absorbance (OD). Normalized fluorescence was determined by dividing fluorescence by optical density for a given measurement. […]
(§3) The ratio of fluorescence to absorbance at 600 nm was used in order to compensate for changes in cell density over time and between experiments (AFU/OD). […] This transfer function is plotted on a log-log scale in FIG. 1A and FIG. 1B to capture the wide range of inducer concentrations and resulting fluorescence values. […]

Another data set has as its system DH5α cells. Kind of data set: Toxicity of inducer chemicals and solvents (growth). Particulars: for concentration at which toxicity was observed: E. coli without resistance gene; for effect on growth: arabinose high concentrations, glucarate highest concentration, ethanol low levels. As for the experimental part: (§4) Growth rate was measured for each combination of chemical and concentration during the exponential phase of growth. Rates were normalized to the growth rate of cells without any added chemical and plotted as bar height. Concentration of each inducer is indicated in the table, corresponding to the bar chart by order and color. […] Inducer concentrations mirror the concentrations used in the induction experiments.
(§5) 150 μl of cells were transferred into 96-well plates and the assayed chemical was immediately added in triplicate before further incubation at 600 RPM and 37° C.
(§6) Toxicity of the inducer chemicals was measured to help guide the choice of inducer concentration for biosensor applications. In applications where maximum protein production is the goal, toxicity will be less of a consideration. In contrast, sub-toxic induction is important for complex circuits that require the cell to maintain a healthy cell state.

The test system of the next data set is E. coli DH5α cells. Kind of data set: Toxicity of inducer chemicals (growth). The protocol:
as §4, §5, §6

For data set [2], the target named is MphR (E. coli), regulator sequence SEQ ID NO: 12 (Escherichia coli, UniProt Q9EVJ6). As to the kind of experiment: MphR biosensor induction (sfGFP reporter, Hill fit). The format is cell-based. Particulars: erythromycin.
Source text: as §1, §2, §3

Data set [3] addresses T2, TetR, regulator sequence SEQ ID NO: 13 (Escherichia coli, UniProt P04483).
T2 construct: expressed in transfected cells; host or cells: E. coli DH5alpha transformed with pJKR-H (high copy) or pJKR-L (low copy) plasmid
Kind of data set: cell-based. In kind it is cell-based. Particulars: anhydrotetracycline; for Fold Induction: 15 h; for EC50: lumped half-maximal parameter from Hill fit. The source says:
Plasmids were constructed using Gibson isothermal assembly methods (see Gibson, D. G., Young, L., Chuang, R. Y., Venter, J. C., Hutchison, C. A., 3rd and Smith, H. O. (2009) Enzymatic assembly of DNA molecules up to several hundred kilobases. Nat Methods, 6, 343-345 incorporated herein by reference in its entirety) and transformed into DH5α electrocompetent cells (New England Biolabs, Ipswich Mass.). All standard induction plasmids contained the rrnB strong terminator (see Orosz, A., Boros, I. and Venetianer, P. (1991) Analysis of the complex transcription termination region of the Escherichia coli rrnB gene. European journal of biochemistry/FEBS, 201, 653-659 incorporated herein by reference in its entirety) followed by the inducible promoter and the strong g10 RBS (see Olins, P. O., Devine, C. S., Rangwala, S. H. and Kavka, K. S. (1988) The T7 phage gene 10 leader RNA, a ribosome-binding site that dramatically enhances the expression of foreign genes in Escherichia coli. Gene, 73, 227-235 incorporated herein by reference in its entirety) ‘[…],’ (SEQ ID NO:1) driving the expression of sfGFP (see Pedelacq, J. D., Cabantous, S., Tran, T., Terwilliger, T. C. and Waldo, G. S. (2006) Engineering and characterization of a superfolder green fluorescent protein. […] GFP was followed by a transcriptional terminator prefixing the proB promoter (see Davis, J. H., Rubin, A. J. and Sauer, R. T. (2011) Design, construction and characterization of a set of insulated bacterial promoters. Nucleic acids research, 39, 1131-1141 incorporated herein by reference in its entirety) and strong RBS ‘[…],’ (SEQ ID NO:2) which facilitated expression of the transcriptional regulator. Each inducible system was implemented on high and low copy plasmids. High copy pJKR-H plasmids were constructed with the pUC origin and beta lactamase antibiotic resistance marker derived from pUC19 (New England Biolabs, Ipswich Mass.). Low copy pJKR-L plasmids were constructed in the same way, except that the pUC origin was replaced by the SC101 origin (including repA) from pSC101 obtained from American Type Culture Collection (ATCC #37032). […] The plasmids MphR-p15a-SPEC-mCherry and AcuR-colA-KAN-CFP were designed for compatible maintenance with pJKR-H-CdaR. In both these plasmids the antibiotic resistance gene and origin of replication were replaced with p15a-aadA and colA-kanR. Each enzyme was cloned downstream of the constitutive promoter P2 (see Mutalik, V. K., Guimaraes, J. C., Cambray, G., Lam, C., Christoffersen, M. J., Mai, Q. A., Tran, A. B., Paull, M., Keasling, J. D., Arkin, A. P. et al. (2013) Precise and reliable gene expression via standard transcription and translation initiation elements. Nat Methods, 10, 354-360 hereby incorporated by reference in its entirety) and g10 RBS to create pJKR-MIOX variants. These expression plasmids used the colA origin of replication and kanamycin resistance gene for maintenance. Sequences and plasmids are available on Addgene (plasmid numbers 62557-62570).
DH5α cells transformed with pJKR plasmids and maintained with carbenicillin were used in the induction assays. For each induction evaluation experiment, the cells were grown overnight to saturation before being diluted 1:100 into fresh LB media and incubated at 200 RPM and 37° C. After four hours, 150 μl of the log-phase cells were transferred to 96-well plates and stock inducer was added to achieve the desired range of induction concentrations. Three separate wells were inoculated and independently supplemented with the appropriate amount of inducing chemical for each level of induction. Measurements were made on the same Biotek (Winooksi, Vt.) HT plate reader using the same settings: excitation 485/20, emission 528/20, 37° C. and fast shaking. Fluorescence and absorbance were measured every 10 minutes for 15 hours. Fluorescence was measured in arbitrary units (AFU) while optical density was determined by absorbance (OD). […]

Another data set has as its system TtgR biosensor. As to the kind of experiment: TtgR biosensor induction with phenol and related compounds. In kind it is cell-based, E. coli. The conditions noted are these: 0.1% phenol, 0.1% catechol, up to 0.4% benzene; fluorescence after 90 minutes.
The target of data set [4] is T3, AraC, regulator sequence SEQ ID NO: 10 (Escherichia coli, UniProt P0A9E0).
T3 construct: expressed in transfected cells; host or cells: E. coli DH5alpha transformed with pJKR-H (high copy) or pJKR-L (low copy) plasmid
As to the kind of experiment: AraC biosensor induction (sfGFP reporter, Hill fit). The format is cell-based, E. coli. The conditions noted are these: arabinose.
Source text: as §1, §2, §3

As to `O=C1C[C@@H](c2ccc(O)cc2)Oc2cc(O)cc(O)c21` [Naringenin, naringenin], in data set [1] (high copy), the “Hill Coefficient” value worked out at 3.8 ± 0.6 and the “Max Expression Velocity” value is 180 ± 6 s⁻¹. In addition, in data set [1] (low copy), the “Hill Coefficient” value is on record as 2.3 ± 0.4 and the “Max Expression Velocity” value amounted to 25 ± 1 s⁻¹.
Turning to `CC[C@H]1OC(=O)[C@H](C)[C@@H](O[C@H]2C[C@@](C)(OC)[C@@H](O)[C@H](C)O2)[C@H](C)[C@@H](O[C@@H]2O[C@H](C)C[C@H](N(C)C)[C@H]2O)[C@](C)(O)C[C@@H](C)C(=O)[C@H](C)[C@@H](O)[C@]1(C)O` [erythromycin], the “concentration at which toxicity was observed” value with DH5α cells was ≥ 50 µM. In addition, in the data set on DH5α cells (with expression of the erythromycin resistance gene (eryR)), the “concentration up to which only slight toxicity was observed” value was “up to 1.4 mM”.
In the case of `Cc1c2c(c(O)c3c(O)cccc13)C(=O)[C@]1(O)C(=O)C(C(N)=O)=C(O)[C@@H](N(C)C)[C@@H]1C2` [anhydrotetracycline], in the data set on DH5α cells (E. coli, defect likely due to solvent ethanol), the “concentration at which growth defect was observed” value was 430 nM.
`CC[C@H]1OC(=O)[C@H](C)[C@@H](O[C@H]2C[C@@](C)(OC)[C@@H](O)[C@H](C)O2)[C@H](C)[C@@H](O[C@@H]2O[C@H](C)C[C@H](N(C)C)[C@H]2O)[C@](C)(O)C[C@@H](C)C(=O)[C@H](C)[C@@H](O)[C@]1(C)O` [Erythromycin, erythromycin]: the “Toxicity in induction experiment” value in the data set on E. coli DH5α cells (1400 μM and 450 μM erythromycin, low-copy MphR) is recorded as “high toxicity”. Also, the Toxicity result with E. coli DH5α cells (with eryR, erythromycin up to 1.4 mM) is given as “only slight toxicity”. Further, in data set [2] (high copy), the “Hill Coefficient” value was 1.6 ± 0 and the “Max Expression Velocity” value turned out to be 2070 ± 20 s⁻¹. Besides, in data set [2] (low copy), the “Hill Coefficient” value stood at 1.6 ± 0.1 and the “Max Expression Velocity” value came to 66 ± 1 s⁻¹.
`Cc1c2c(c(O)c3c(O)cccc13)C(=O)[C@]1(O)C(=O)C(C(N)=O)=C(O)[C@@H](N(C)C)[C@@H]1C2` [Anhydrotetracycline, anhydrotetracycline]: in data set [3] (high copy), the “Hill Coefficient” value was 4.2 ± 0.1, the “Max Expression Velocity” value came to 1760 ± 10 s⁻¹, the “Fold Induction” value is 63 ± 3 fold and a half-maximal response (EC50) required 81 ± 1 nM. Further, in data set [3] (low copy), the “Hill Coefficient” value is 3.1 ± 0.3, the “Max Expression Velocity” value worked out at 116 ± 2 s⁻¹, the “Fold Induction” value is recorded as >50 fold and the 50% effective concentration (EC50) is 54 ± 2 nM.
Turning to `O=C1C[C@@H](c2ccc(O)cc2)Oc2cc(O)cc(O)c21` [naringenin], in the data set with DH5α cells, the “concentration at which toxicity was observed” value was ≥ 330 µM.
Regarding `CCO` [ethanol], the effect on growth result in the data set with DH5α cells is recorded as “more modest growth benefits”.
On to `Oc1ccccc1` [phenol], for which the “fluorescent response of TtgR biosensor” value in the data set with TtgR biosensor is “activated the sensor”.
In the case of `O=C(O)[C@@H](O)[C@@H](O)[C@H](O)[C@@H](O)C(=O)O` [glucarate], the effect on growth entry in the data set on DH5α cells is “more modest growth benefits”.
`c1ccccc1` [benzene]: the “fluorescent response of TtgR biosensor” value in the data set on TtgR biosensor is “background levels of fluorescence”.
As for `O=C[C@@H](O)[C@H](O)[C@H](O)CO` [arabinose], in the data set on DH5α cells, the effect on growth entry is listed as “higher growth rates”.
`OC1OC[C@H](O)[C@H](O)[C@H]1O` (stereo partly shown) [Arabinose, arabinose]: in data set [4] (high copy), the “Hill Coefficient” value worked out at 1.3 ± 0.1 and the “Max Expression Velocity” value amounted to 3150 ± 60 s⁻¹. Moreover, in data set [4] (low copy), the “Hill Coefficient” value was 1.3 ± 0.2 and the “Max Expression Velocity” value came to 1260 ± 50 s⁻¹.
